Ki data for 38 compounds are collected here from ChEMBL document CHEMBL1145819 (J Med Chem, 2003).

As usually defined, the Ki is the dissociation constant of the complex between target and ligand, obtained from inhibition or displacement.

Several values for one entry are separate records, joined by “and”; a condition that tells them apart may be missing. Equal values may be shown once.

5-hydroxytryptamine receptor 7 (Rattus norvegicus, UniProt P32305), sequence (P32305 whole entry): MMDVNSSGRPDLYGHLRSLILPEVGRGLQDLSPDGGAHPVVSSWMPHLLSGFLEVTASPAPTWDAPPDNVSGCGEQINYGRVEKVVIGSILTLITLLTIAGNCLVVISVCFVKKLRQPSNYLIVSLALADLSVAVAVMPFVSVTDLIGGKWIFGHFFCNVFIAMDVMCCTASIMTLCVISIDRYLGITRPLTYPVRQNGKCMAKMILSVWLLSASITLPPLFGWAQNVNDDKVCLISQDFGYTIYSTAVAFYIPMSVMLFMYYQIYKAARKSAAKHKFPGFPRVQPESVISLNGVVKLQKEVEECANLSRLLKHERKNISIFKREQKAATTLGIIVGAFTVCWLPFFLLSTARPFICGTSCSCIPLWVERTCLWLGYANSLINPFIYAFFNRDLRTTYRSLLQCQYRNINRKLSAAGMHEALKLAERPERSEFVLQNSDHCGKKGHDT

The target in one assay is 5-hydroxytryptamine receptor 7 (Homo sapiens, UniProt P34969). Kind of assay: Binding affinity towards human 5-hydroxytryptamine 7 receptor.
5-hydroxytryptamine receptor 7 (Homo sapiens, UniProt P34969), sequence (P34969 whole entry): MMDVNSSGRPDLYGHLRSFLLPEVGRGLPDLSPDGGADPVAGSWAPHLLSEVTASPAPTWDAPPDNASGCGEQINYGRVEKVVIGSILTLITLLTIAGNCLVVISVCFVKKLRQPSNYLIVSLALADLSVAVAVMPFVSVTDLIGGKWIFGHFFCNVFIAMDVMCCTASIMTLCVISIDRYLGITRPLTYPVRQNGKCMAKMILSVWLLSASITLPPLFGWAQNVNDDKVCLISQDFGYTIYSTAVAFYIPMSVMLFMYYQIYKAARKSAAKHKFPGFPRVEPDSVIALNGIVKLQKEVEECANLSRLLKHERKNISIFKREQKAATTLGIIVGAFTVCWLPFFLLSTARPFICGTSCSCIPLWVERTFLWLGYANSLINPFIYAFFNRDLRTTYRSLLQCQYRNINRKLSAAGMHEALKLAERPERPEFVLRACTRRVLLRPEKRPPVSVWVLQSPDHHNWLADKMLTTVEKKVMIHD
Details: not given
For `Cc1cccc(S(=O)(=O)N2CCC[C@@H]2CCN2CCC(C)CC2)c1` [SB-258741], the Ki amounted to 3 nM.

`CO[C@]1(C)c2cccc3c2-c2c1ccc1c2[C@@H](C3)N(C)CC1` gave a Ki of 1.1 nM.

For the compound `CC1CCCN(CCC(C)N(C)S(=O)(=O)c2cccc3ccccc23)C1` (stereo unspecified), the Ki is 32 nM and 125 nM and 65 nM.

`CN1CCc2ccc3c4c2[C@H]1Cc1cccc(c1-4)[C@H]3N` gave a Ki of 13.4 nM.

On to `CN1C[C@@H](NS(=O)(=O)N(C)C)C[C@@H]2c3cccc4[nH]cc(c34)C[C@H]21` [DISULERGINE], for which the Ki stood at 18 nM.

`OCCN1CCN(CCCN2c3ccccc3Sc3ccc(Cl)cc32)CC1` [PERPHENAZINE] showed a Ki of 23 nM.

The compound `CCc1c(C)[nH]c2c1C(=O)C(CN1CCOCC1)CC2` (stereo unspecified) [MOLINDONE] yielded a Ki of 265 nM.

With `CN1CCc2cccc3c2[C@H]1Cc1cccc(-c2ccccc2)c1-3`, the affinity, expressed as Ki, was 9.78 nM.

Regarding `Cc1cccc(C#N)c1-c1cccc2c1-c1cccc3c1[C@@H](C2)N(C)CC3`, the Ki was 20.8 nM and 3.79 nM.

Compound `CO[C@@]1(C)c2cccc3c2-c2c1ccc1c2[C@@H](C3)N(C)CC1` displayed a Ki of 1.1 nM.

The target of a further assay is T1, 5-hydroxytryptamine receptor 5A (Homo sapiens, UniProt P47898). The experiment in a line: Binding affinity towards human 5-hydroxytryptamine 5A receptor.
T1 sequence (P47898 whole entry): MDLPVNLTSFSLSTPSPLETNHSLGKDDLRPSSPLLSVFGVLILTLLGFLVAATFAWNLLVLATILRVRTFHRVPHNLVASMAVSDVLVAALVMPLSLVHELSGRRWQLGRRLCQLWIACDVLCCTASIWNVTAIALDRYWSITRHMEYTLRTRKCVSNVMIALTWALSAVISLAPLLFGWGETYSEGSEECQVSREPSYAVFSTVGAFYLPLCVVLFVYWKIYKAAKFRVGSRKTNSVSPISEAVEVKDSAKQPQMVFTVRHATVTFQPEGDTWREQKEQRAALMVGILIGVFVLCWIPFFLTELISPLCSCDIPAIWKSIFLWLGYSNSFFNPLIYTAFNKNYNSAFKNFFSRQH
Details: not given
`COc1cc(CC(C)N)c(OC)cc1I` (stereo unspecified) yielded a Ki of over 1000 nM.

The compound `C[N+](C)(C)CCc1c[nH]c2ccc(O)cc12` registered a Ki of over 10000 nM.

`COc1cc(N)c(Cl)cc1C(=O)NC1CN2CCC1CC2` (stereo unspecified) [ZACOPRIDE] gave a Ki of 16000 nM.

`O=C(c1ccc(F)cc1)C1CCN(CCn2c(=O)[nH]c3ccccc3c2=O)CC1` [KETANSERIN] came in with a Ki of 20000 nM.

For another assay, the target named is T1, 5-hydroxytryptamine receptor 5A. Kind of assay: Binding affinity towards human 5-hydroxytryptamine 5A receptor was evaluated using [3H]-5-CT as radioligand.
Details: not given
The compound `CN1CCN(C2=Nc3cc(Cl)ccc3Nc3ccccc32)CC1` [CLOZAPINE] displayed a Ki of 1000 nM.

As for `O=C(c1ccc(F)cc1)C1CCN(CCn2c(=O)[nH]c3ccccc3c2=O)CC1` [KETANSERIN], the affinity, expressed as Ki, was 20000 nM.

The next assay addresses 5-hydroxytryptamine receptor 7 (Rattus norvegicus, UniProt P32305). Kind of assay: Binding affinity towards rat 5-hydroxytryptamine 7 receptor. To be noted: read-out: Ki.
Turning to `CN1C[C@@H](NS(=O)(=O)N(C)C)C[C@@H]2c3cccc4[nH]cc(c34)C[C@H]21` [DISULERGINE], the Ki came to 21 nM.

As for `CN(C)CC/C=C1/c2ccccc2Sc2ccc(Cl)cc21` [CHLORPROTHIXENE], the Ki came out at 5.6 nM.

Regarding `CN1CCN(C2=Nc3ccccc3Nc3sccc32)CC1`, the Ki was found to be 104 nM.

The target in another assay is 5-hydroxytryptamine receptor 6 (Homo sapiens, UniProt P50406).
5-hydroxytryptamine receptor 6, sequence (P50406 whole entry): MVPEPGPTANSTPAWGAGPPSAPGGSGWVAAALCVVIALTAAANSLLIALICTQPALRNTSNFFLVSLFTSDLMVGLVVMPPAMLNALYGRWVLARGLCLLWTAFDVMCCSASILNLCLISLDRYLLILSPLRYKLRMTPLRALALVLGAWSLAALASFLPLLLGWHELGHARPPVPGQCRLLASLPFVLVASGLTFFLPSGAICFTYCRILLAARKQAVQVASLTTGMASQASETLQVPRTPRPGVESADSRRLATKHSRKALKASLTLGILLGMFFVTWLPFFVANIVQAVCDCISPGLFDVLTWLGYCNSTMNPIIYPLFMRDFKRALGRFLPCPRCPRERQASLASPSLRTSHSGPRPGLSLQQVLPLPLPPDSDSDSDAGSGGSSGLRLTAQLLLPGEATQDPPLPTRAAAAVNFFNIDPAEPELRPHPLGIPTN
Details: not given
`CN1CCN(C2=Nc3ccccc3Oc3ccc(Cl)cc32)CC1` [LOXAPINE]: the Ki is 15 nM.

Regarding `CO[C@H]1c2cccc3c2c(cn3S(=O)(=O)c2ccc(C)cc2)C[C@@H]1N`, the inhibitory constant (Ki) turned out to be 130 nM.

The compound `C1CCN2CCNCC2C1` (stereo unspecified) had a Ki of 5 nM.

`COc1ccc2c(CCN(C)C)c[nH]c2c1`: the affinity corresponds to a Ki of 8000 nM.

In turn, `COc1cccc2[nH]cc(CCN(C)C)c12` registered a Ki of 154 nM.

With `COc1ccc2c(c1)c(CCN(C)C)cn2Cc1ccccc1`, the inhibition constant (Ki) was 6.5 nM.

Regarding `Nc1ccc(S(=O)(=O)Nc2cc(N)nc(Br)c2)cc1`, the Ki was 55 nM.

`Cc1ccc(S(=O)(=O)n2cc3c4c(cccc42)[C@H](O)[C@@H](N)C3)cc1`: the Ki worked out at 7.2 nM.

Compound `COc1cccc2c(CCN(C)C)c[nH]c12` showed a Ki of 19600 nM.

`CNc1cc(NS(=O)(=O)c2ccc(N)cc2)nc(N)n1` returned a Ki of 1000 nM.

Compound `CN(C)CC/C=C1/c2ccccc2Sc2ccc(Cl)cc21` [CHLORPROTHIXENE] displayed an inhibition constant (Ki) of 3 nM.

As to `CNc1cc(Br)cc(NS(=O)(=O)c2ccc(N)cc2)c1`, affinity was put at a Ki of 20 nM.

Compound `CNc1cc(NC)cc(NS(=O)(=O)c2ccc(N)cc2)c1` showed an inhibition constant (Ki) of 200 nM.

`COc1ccc2c(c1)c(CCN(C)C)cn2S(=O)(=O)c1ccc(N)cc1` registered a Ki of 2 nM.

`O=c1[nH]c2ccccc2n1C1CCN(CCCC(c2ccc(F)cc2)c2ccc(F)cc2)CC1` [PIMOZIDE] displayed an inhibitory constant (Ki) of 71 nM.

`COc1ccc2c(c1)c(CCN(C)C)cn2-c1ccccc1` gave an inhibition constant Ki of 33 nM.

On to `O=S(=O)(c1cccc2ccccc12)n1ccc2ccc(N3CCN4CCCC4C3)cc21` (stereo unspecified), for which the inhibitory constant (Ki) stood at 0.7 nM.

For the compound `COc1ccc2c(c1)c1c(n2S(=O)(=O)c2ccccc2)CCCC1CN(C)C` (stereo unspecified), the Ki is 1.5 nM.

In turn, `CN(C)CCc1cn(S(=O)(=O)c2ccccc2)c2ccccc12` showed an inhibition constant (Ki) of 4.1 nM.

In the case of `Nc1ccc(S(=O)(=O)Nc2cc(Br)cc3[nH]ccc23)cc1`, the inhibition constant Ki was 50 nM.

On to `CN(C)CCc1cn(S(=O)(=O)c2ccc(N)cc2)c2ccccc12`, for which the Ki was 0.8 nM.

`CN(C)Cc1cn(S(=O)(=O)c2ccc(N)cc2)c2ccccc12`: the inhibitory constant (Ki) came out at 6.9 nM.
